Results published in ChEMBL document CHEMBL3301361, “Experimental in vitro DMPK and physicochemical data on a set of publicly disclosed compounds”.
Converted amounts (≈) assume the structure as drawn.

Experiment: physchem
Settings: pH 7.4 buffer

Row | solubility thermodynamic | Compound
1 | 1.8 µM (≈ 0.73 µg/mL) | C[C@@H]1CN(c2nc(N3CCOCC3)c3ccc(-c4ccccc4)nc3n2)C[C@H](C)O1
2 | 8.1 µM (≈ 3.86 µg/mL) | CN(C(=O)Cc1ccc(-n2cnnn2)cc1)[C@H]1CCN(Cc2ccc(C(F)(F)F)cc2)C[C@H]1F
3 | 81.3 µM (≈ 22.6 µg/mL) | CCCSc1ncccc1C(=O)NC1CCCCC1
4 | 8.9 µM (≈ 4.52 µg/mL) | C[C@@H](CN(C)C(=O)CO)Oc1cccc2ncnc(Nc3ccc(OCc4ccccn4)c(Cl)c3)c12
5 | 0.8 µM (≈ 0.281 µg/mL) | NC(=O)Nc1sc(-c2ccccc2)cc1C(=O)NCc1ccccc1
6 | 8.1 µM (≈ 3.92 µg/mL) | C[C@H](Oc1cccc2ncnc(Nc3ccc4c(cnn4Cc4cccc(F)c4)c3)c12)C(=O)N(C)C
7 | 166 µM (≈ 52.2 µg/mL) | O=C(NC1CCN(C(=O)c2cccs2)CC1)c1ccccc1
8 | 1000 µM (≈ 568 µg/mL) | COc1cc2c(Nc3cc(CC(=O)Nc4cccc(F)c4F)[nH]n3)ncnc2cc1OCCCN1CCC[C@H]1CO
9 | 1.9 µM (≈ 0.769 µg/mL) | Cc1c(Cl)c(C(F)(F)F)nn1CC(=O)N1CCN(c2ccc(F)cc2)CC1
10 | 15.5 µM (≈ 6.48 µg/mL) | COc1cc2ncnc(Nc3ccc(F)c(Cl)c3)c2cc1CN(C)[C@H](C)C(N)=O
11 | 2.2 µM (≈ 0.933 µg/mL) | O=S(=O)(c1ccc(N2CCC(c3ccc(Cl)cc3)=N2)cc1)N(CCO)CCO
12 | 1230 µM (≈ 325 µg/mL) | O=C(CCCCCCC(=O)Nc1ccccc1)NO [VORINOSTAT]
13 | 468 µM (≈ 119 µg/mL) | Cn1[nH]c(CSc2ccc(Cl)cc2)cc1=O
14 | 1510 µM (≈ 355 µg/mL) | Cc1ccc(SCc2cc(=O)n(C)[nH]2)cc1
15 | 2 µM (≈ 0.964 µg/mL) | Clc1cc(Nc2ncnc3[nH]nc(OCCN4CCOCC4)c23)ccc1OCc1ccccn1
16 | 9.1 µM (≈ 4.38 µg/mL) | C=CCN(C(=O)NCc1cccc(C)c1)C1CCN(CCC(c2ccccc2)c2ccccc2)CC1
17 | 0.9 µM (≈ 0.245 µg/mL) | c1ccc(-c2cnn3cc(-c4ccncc4)cnc23)cc1
18 | 141 µM (≈ 75.3 µg/mL) | COc1cccc(NC(=O)Cn2cc(Oc3ncnc4cc(OC)c(OCCN5CCCCC5)cc34)cn2)c1
19 | 0.5 µM (≈ 0.181 µg/mL) | O=C(Cc1ccc2ccccc2c1)Nc1cc(-c2ccc(Cl)cc2)n[nH]1
20 | 295 µM (≈ 160 µg/mL) | O=C(N[C@@H](Cc1ccc(OCCc2cccc(NC3CCCC3)n2)cc1)C(=O)O)c1c(Cl)cccc1Cl
21 | 2.2 µM (≈ 0.667 µg/mL) | CC(=O)Nc1nc(-c2ccc(Br)s2)cs1
22 | 1.9 µM (≈ 0.841 µg/mL) | CCOC(=O)C1CCN(c2ncnc(Oc3ccc(CCC(C)=O)cc3)c2[N+](=O)[O-])CC1
23 | 5.8 µM (≈ 2.41 µg/mL) | CN(C)CCCN(C)c1nc2cc(Cl)c(Cl)cc2nc1/C=C/c1ccccc1
24 | 1.5 µM (≈ 0.762 µg/mL) | COc1cc(N2CCN(C(=O)[C@H](C)O)CC2)ccc1Nc1ncc(Cl)c(-c2cnc3ccccn23)n1

Row | solubility thermodynamic | Compound
25 | 79.4 µM (≈ 18.6 µg/mL) | N=C(N)Nc1nc(-c2cccc(O)c2)cs1
26 | 0.6 µM (≈ 0.305 µg/mL) | COc1cc2c(Nc3ccc(Cc4ccccc4)cc3)c(C#N)cnc2cc1OCCCN1CCOCC1
27 | 5.1 µM (≈ 2.19 µg/mL) | COc1cc2ncnc(Nc3ccc(F)c(Cl)c3)c2cc1CN1CCC[C@@H]1C(N)=O
28 | 398 µM (≈ 172 µg/mL) | O=C(Nc1ccccc1)c1ccc(OCCCN2CCCC2)cc1OCc1cccnc1
29 | 4.7 µM (≈ 2.11 µg/mL) | CC(C)(C)OC(=O)N1CCN(c2cnc(OCc3ccc(S(C)(=O)=O)cc3)cn2)CC1
30 | 0.5 µM (≈ 0.176 µg/mL) | O=C(CNC(=O)c1ccc(Cl)cc1)c1ccc(Br)cc1
31 | 41.7 µM (≈ 9.89 µg/mL) | Oc1cc(-c2ccccc2)nc2c(O)cccc12
32 | 83.2 µM (≈ 35.2 µg/mL) | CNC(=O)[C@@H](NC(=O)[C@H](CC(C)C)[C@@H](Sc1ccccc1)C(=O)NO)C(C)(C)C
33 | 2.8 µM (≈ 0.886 µg/mL) | O=S(=O)(Nc1ccccn1)c1ccc(C2CCCCC2)cc1
34 | 2.5 µM (≈ 1.14 µg/mL) | C[C@@H](c1ccc(-c2ccc(F)cc2F)cc1)N1CC[C@](CCO)(c2ccc(F)cc2)OC1=O
35 | 112 µM (≈ 47.2 µg/mL) | CC(C)Oc1cc(O[C@H](C)c2ccccc2)cc(C(=O)Nc2ccc(C(=O)O)cn2)c1
36 | 7.2 µM (≈ 2.25 µg/mL) | COc1ccc(NC(=O)c2cccn(CC=C(C)C)c2=O)cc1
37 | 158 µM (≈ 36.8 µg/mL) | COc1ccc(NC(=O)c2cc(C)no2)cc1
38 | 1260 µM (≈ 607 µg/mL) | COC[C@H](C)Oc1cc(O[C@@H](C)Cc2ccc(F)cc2)cc(C(=O)Nc2ccc(C(=O)O)cn2)c1
39 | 4.4 µM (≈ 1.8 µg/mL) | Cn1cc(C2=C(c3cccc(NCC(O)CO)c3)C(=O)NC2=O)c2cc(F)ccc21 (configuration not stated)
40 | 89.1 µM (≈ 16.9 µg/mL) | CCOC(=O)c1cc2ccccc2[nH]1
41 | 1.2 µM (≈ 0.323 µg/mL) | CCOc1ccc(NCC(=O)c2ccc(C)cc2)cc1
42 | 0.4 µM (≈ 0.159 µg/mL) | COc1cc(OC)cc(-c2cc3cnc(N)nc3nc2NC(=O)NC(C)(C)C)c1
43 | 282 µM (≈ 125 µg/mL) | CNC(=O)[C@H]1CCCN1Cc1cc2c(Nc3cccc(Cl)c3F)ncnc2cc1OC
44 | 25.1 µM (≈ 11.3 µg/mL) | C[C@@H](O)C(=O)N1CC=C(c2c(F)cc(N3C[C@H](COc4ccon4)OC3=O)cc2F)CC1
45 | 1.9 µM (≈ 0.632 µg/mL) | Cc1ccc(Oc2ccc(C(=O)N(C)Cc3ccncc3)cc2)cc1
46 | 75.9 µM (≈ 37.1 µg/mL) | CO[C@@H]1CN(Cc2ccc(C(F)(F)F)cc2)CC[C@@H]1N(C)C(=O)Cc1ccc(-n2cnnn2)cc1
47 | 1.6 µM (≈ 0.742 µg/mL) | CNC(=O)[C@@H](C)Oc1cccc2ncnc(Nc3ccc(OCc4ccccn4)c(Cl)c3)c12
48 | 3.1 µM (≈ 1.58 µg/mL) | CN(c1ccc(Cl)c(CO)c1)c1ccnc(Nc2cc(N3CCOCC3)cc(N3CCOCC3)c2)n1

Row | solubility thermodynamic | Compound
49 | 5.1 µM (≈ 1.73 µg/mL) | O=C(NCCSCc1c(F)cccc1Cl)Nc1ccccc1
50 | 417 µM (≈ 122 µg/mL) | NC(=O)c1ccc(I)c([N+](=O)[O-])c1 [INIPARIB]
51 | 129 µM (≈ 54.7 µg/mL) | N#CC1(NC(=O)[C@@H]2CCCC[C@H]2C(=O)N2CCc3[nH]c4ccc(Cl)cc4c3C2)CC1
52 | 4.9 µM (≈ 2.36 µg/mL) | CN1CCC(Oc2cccc3ncnc(Nc4ccc(OCc5cscn5)c(Cl)c4)c23)CC1
53 | 53.7 µM (≈ 24.5 µg/mL) | COCCNS(=O)(=O)c1ccc(Nc2nccc(-c3cnc(C)n3C3CCCC3)n2)cc1
54 | 41.7 µM (≈ 21 µg/mL) | COc1cc2c(Nc3ccc(Br)cc3F)ncnc2cc1OCCCN1CCN(C)CC1
55 | 56.2 µM (≈ 37 µg/mL) | CCN(C(=O)Cc1ccc(S(C)(=O)=O)cc1)C1CCN(CC[C@@H](c2ccccc2)C2CCN(S(=O)(=O)C(F)(F)F)CC2)CC1
56 | 224 µM (≈ 48.4 µg/mL) | O=C1NC(=O)C2(CCc3ccccc3C2)N1 (configuration not stated) [TETRANTOIN]
57 | 26.9 µM (≈ 12.7 µg/mL) | COc1ccc(Cl)c(Nc2ncnc3cc(OCCN4CCOCC4)cc(OC(C)C)c23)n1
58 | 0.5 µM (≈ 0.264 µg/mL) | Cn1cnc(-c2cccc(NC(=O)Nc3cc(C(F)(F)F)ccc3F)c2)c1-c1cc2c(N)ncnc2s1
59 | 32.4 µM (≈ 14 µg/mL) | CCn1ccc(NC(=O)Cc2ccc(Oc3ncnc4cc(OC)c(OC)cc34)cc2)n1
60 | 1070 µM (≈ 452 µg/mL) | CC(C)Oc1cc(OCCc2ccncc2)cc(C(=O)Nc2ccc(C(=O)O)cn2)c1
61 | 170 µM (≈ 90.6 µg/mL) | CC(=O)N1CCN(CCOc2ccc(C3(O)CCN(c4ccc5nnc(C(F)(F)F)n5n4)CC3)cc2)CC1
62 | 182 µM (≈ 54.1 µg/mL) | Nc1ccccc1NC(=O)c1ccc(N2CCOCC2)cc1
63 | 389 µM (≈ 150 µg/mL) | COc1ccc(N2CCN(C(=O)[C@@H]3CCCC[C@H]3C(=O)NCC#N)CC2)cc1
64 | 2.4 µM (≈ 0.55 µg/mL) | COc1ccc2c(c1)Sc1ccccc1N2
65 | 0.1 µM (≈ 0.0444 µg/mL) | C#CCN(Cc1ccc2nc(C)nc(O)c2c1)c1ccc(S(=O)(=O)c2ccccc2)cc1
66 | 44.7 µM (≈ 19.4 µg/mL) | COc1cc(C2CCNCC2)ccc1Nc1ncc(Cl)c(-c2cnc3ccccn23)n1
67 | 22.4 µM (≈ 11.6 µg/mL) | COc1cnc(Cl)c(Nc2ncnc3cc(OCCN4CCN(C(C)=O)CC4)cc(OC(C)C)c23)n1
68 | 1.5 µM (≈ 0.564 µg/mL) | CN(C)C(=O)[C@H](Cc1ccccc1)NC(=O)c1cc2cc(Cl)sc2[nH]1
69 | 263 µM (≈ 128 µg/mL) | CO[C@H]1CN(Cc2ccc(C(F)(F)F)cc2)CC[C@H]1N(C)C(=O)Cc1ccc(-n2cnnn2)cc1
70 | 0.6 µM (≈ 0.143 µg/mL) | c1csc(-c2n[nH]c3c2Cc2ccccc2-3)c1
71 | 912 µM (≈ 238 µg/mL) | CNC(=O)CCc1nc(-c2ccc(OC)cc2)no1
72 | 589 µM (≈ 291 µg/mL) | COC[C@H](C)Oc1cc(O[C@@H](C)Cc2ccccc2OC)cc(C(=O)Nc2ccc(C(=O)O)cn2)c1

Row | solubility thermodynamic | Compound
73 | 5 µM (≈ 2.32 µg/mL) | O=C(Nc1cccc(O)c1)c1ccc(OCCCN2CCCC2)cc1OCc1ccc(F)cc1
74 | 28.8 µM (≈ 9.52 µg/mL) | C[C@@H](Nc1ncnc2[nH]c(-c3ccc(O)cc3)cc12)c1ccccc1 [PKI-166]
75 | 6.9 µM (≈ 1.91 µg/mL) | CCN1N=C(c2ccccc2)Cn2c1nc1ccccc12
76 | 759 µM (≈ 360 µg/mL) | CN1CCC(Oc2cc(OCCF)cc3ncnc(Nc4c(Cl)ccc5c4OCO5)c23)CC1
77 | 15.8 µM (≈ 6.85 µg/mL) | CCn1cc(NC(=O)Cc2ccc(Oc3ccnc4cc(OC)c(OC)cc34)cn2)cn1
78 | 1 µM (≈ 0.446 µg/mL) | COc1cc2ncnc(Nc3cccc(Cl)c3F)c2cc1CN(C(C)C)[C@@H](C)C(N)=O
79 | 13.8 µM (≈ 6.11 µg/mL) | Cc1cc(F)ccc1CCC1CCN(S(=O)(=O)CC2(N(O)C=O)CCOCC2)CC1
80 | 112 µM (≈ 58.5 µg/mL) | CCCN(CCO)CCCOc1ccc2c(Nc3cc(CC(=O)Nc4cccc(F)c4)[nH]n3)ncnc2c1
81 | 1260 µM (≈ 234 µg/mL) | O=C1NCCc2c1[nH]c1ccccc21
82 | 8.5 µM (≈ 3.69 µg/mL) | CC(C)Oc1cc(O[C@H](C)Cc2ccccc2)cc(C(=O)Nc2ccc(C(=O)O)cn2)c1
83 | 87.1 µM (≈ 34.7 µg/mL) | COc1ccc(Nc2ncnc3cccc(OC4CCN(C)CC4)c23)cc1Cl
84 | 1.8 µM (≈ 0.436 µg/mL) | Cc1nc(O)c2cc(-c3ccccc3)sc2n1
85 | 95.5 µM (≈ 44.3 µg/mL) | N#CC1(NC(=O)[C@@H]2CCCC[C@H]2C(=O)N2CCN(c3nc(-c4ccccc4)cs3)CC2)CC1
86 | 51.3 µM (≈ 23.5 µg/mL) | COc1cc2ncnc(Nc3cccc(Cl)c3F)c2cc1CN(C)C1(C(N)=O)CN(C)C1
87 | 6.6 µM (≈ 1.74 µg/mL) | O=C(Nc1ccccc1)c1ccc2cccc(O)c2n1
88 | 13.5 µM (≈ 4.8 µg/mL) | CCC(=O)Nc1c(C#N)c2nc3ccccc3nc2n1-c1ccccc1C
89 | 246 µM (≈ 55.8 µg/mL) | O=C(Cc1ccccc1)Nc1ccccc1O
90 | 42.7 µM (≈ 22 µg/mL) | COc1ccc(Cl)c(Nc2ncnc3cc(OCCN4CCN(C(C)=O)CC4)cc(OC(C)C)c23)n1
91 | 45.7 µM (≈ 18.2 µg/mL) | CC(C)Oc1cc(OCC2CCCC2)cc(C(=O)Nc2ccc(C(=O)O)cn2)c1
92 | 0.6 µM (≈ 0.246 µg/mL) | COc1cc2ncnc(Nc3ccc4c(ccn4Cc4ccccc4)c3)c2cc1OC
93 | 1.8 µM (≈ 0.874 µg/mL) | COc1ccc2c(Oc3ccc(CC(=O)Nc4cc(C)cc(CN(C)C)c4)c(OC)c3)ccnc2c1

Row | Compound | solubility thermodynamic
94 | c1ccc(-c2ccc(C(c3ccccc3)n3ccnc3)cc2)cc1 (configuration not stated) [BIFONAZOLE] | 1.1 µM (≈ 0.341 µg/mL)
95 | CC[C@@H](C)NC(=O)c1ccc(Oc2ccc(C#C[C@]3(O)CN4CCC3CC4)cc2)cc1 | 112 µM (≈ 47 µg/mL)
96 | COc1ccc(/C=C\c2cc(OC)c(OC)c(OC)c2)cc1O [COMBRETASTATIN A4] | 144 µM (≈ 45.7 µg/mL)
97 | OC1(C#Cc2ccc(-c3ccccc3)cc2)CN2CCC1CC2 (configuration not stated) | 14.8 µM (≈ 4.49 µg/mL)
